Test results: ChEMBL document CHEMBL3813638, “Investigation of the apoptotic pathway induced by benzimidazole-oxindole conjugates against human breast cancer cells MCF-7” (Bioorg Med Chem Lett, 2016)
pIC50: −log10 of the molar value. The source made the active and inactive calls. The calls are words filed in the database; no cut-off is given here.

Experiments:
MCF7 [1] = experiment: Induction of apoptosis in human MCF7 cells assessed as early apoptotic cells at 2 uM after 24 hrs by Annexin V-FITC/PI dual staining based flow cytometry (reference value: 3.5%); type: functional
MCF7 [2] = experiment: Disruption of mitochondrial membrane potential in human MCF7 cells assessed as cells with vital and intact mitochondrial membrane at 1 uM after 48 hrs by JC-1 staining based flow cytometry (reference value: 94%); type: functional
MCF7 [3] = experiment: Induction of ROS generation in human MCF7 cells at 1 uM after 48 hrs by DCFDA fluorescent probe based flow cytometry (reference value: 5.3%); type: functional
MCF7 [4] = experiment: Induction of apoptosis in human MCF7 cells assessed as viable cells at 2 uM after 24 hrs by Annexin V-FITC/PI dual staining based flow cytometry (reference value: 94.9%); type: functional; settings: MCF7, 24 h, read-out: Activity
MCF7 [5] = experiment: Induction of apoptosis in human MCF7 cells assessed as increase in PARP 89 KDa cleavage at 1 to 2 uM after 48 hrs by Western blot analysis; type: functional, cell-based
MCF7 [6] = experiment: Induction of apoptosis in human MCF7 cells assessed as necrotic cells at 1 uM after 24 hrs by Annexin V-FITC/PI dual staining based flow cytometry (reference value: 0.1%); type: functional
MCF7 [7] = experiment: Induction of ROS generation in human MCF7 cells at 2 uM after 48 hrs by DCFDA fluorescent probe based flow cytometry (reference value: 5.3%); type: functional
MCF7 [8] = experiment: Induction of apoptosis in human MCF7 cells assessed as viable cells at 1 uM after 24 hrs by Annexin V-FITC/PI dual staining based flow cytometry (reference value: 94.9%); type: functional; settings: MCF7, 24 h, read-out: Activity
HEK293 = experiment: Cytotoxicity against human HEK293 cells assessed as cell growth inhibition after 48 hrs by MTT assay; type: cell-based; settings: HEK293, 48 h
MCF7 [9] = experiment: Induction of apoptosis in human MCF7 cells assessed as increase in cytochrome c levels at 1 to 2 uM after 48 hrs by Western blot analysis; type: functional, cell-based
MCF7 [10] = experiment: Induction of apoptosis in human MCF7 cells assessed as increase in Bax expression after 48 hrs by Western blot analysis; type: functional, cell-based
MCF7 [11] = experiment: Induction of apoptosis in human MCF7 cells assessed as late apoptotic cells at 2 uM after 24 hrs by Annexin V-FITC/PI dual staining based flow cytometry (reference value: 1.5%); type: functional
MCF7 [12] = experiment: Induction of apoptosis in human MCF7 cells assessed as late apoptotic cells at 1 uM after 24 hrs by Annexin V-FITC/PI dual staining based flow cytometry (reference value: 1.5%); type: functional
MCF7 [13] = experiment: Induction of apoptosis in human MCF7 cells assessed as early apoptotic cells at 1 uM after 24 hrs by Annexin V-FITC/PI dual staining based flow cytometry (reference value: 3.5%); type: functional
MCF7 [14] = experiment: Disruption of mitochondrial membrane potential in human MCF7 cells assessed as cells with vital and intact mitochondrial membrane at 2 uM after 48 hrs by JC-1 staining based flow cytometry (reference value: 94%); type: functional
MCF7 [15] = experiment: Induction of apoptosis in human MCF7 cells assessed as increase in caspase-9 activation at 1 to 2 uM after 48 hrs by Western blot analysis; type: functional, cell-based
MCF7 [16] = experiment: Induction of apoptosis in human MCF7 cells assessed as suppression of Bcl-2 expression after 48 hrs by Western blot analysis; type: functional, cell-based
MCF7 [17] = experiment: Induction of apoptosis in human MCF7 cells assessed as necrotic cells at 2 uM after 24 hrs by Annexin V-FITC/PI dual staining based flow cytometry (reference value: 0.1%); type: functional
Vero = experiment: Cytotoxicity against African green monkey Vero cells assessed as cell growth inhibition after 48 hrs by MTT assay; type: cell-based; settings: Chlorocebus sabaeus
MCF7 [18] = experiment: Cytotoxicity against human MCF7 cells; type: functional, cell-based

Row | SMILES | Activity (MCF7 [1]) | Activity (MCF7 [2]) | Activity (MCF7 [3]) | viability at 2 µM (MCF7 [4]) | Activity (MCF7 [5]) | Activity (MCF7 [6]) | Activity (MCF7 [7]) | viability at 1 µM (MCF7 [8]) | pIC50 (HEK293) | Activity (MCF7 [9]) | Activity (MCF7 [10]) | Activity (MCF7 [11]) | Activity (MCF7 [12]) | Activity (MCF7 [13]) | Activity (MCF7 [14]) | Activity (MCF7 [15]) | Activity (MCF7 [16]) | Activity (MCF7 [17]) | pIC50 (Vero) | pIC50 (MCF7 [18])
1 | O=C1Nc2cc(Cl)ccc2/C1=C/c1ccc2nc(-c3cc(F)cc(F)c3)[nH]c2c1 | 33% | 83.1% | 20.3% | 31% | Active | 1.8% | 30% | 42.3% | 3.83 | Active | Dose-dependent effect | 34.9% | 23.4% | 32.5% | 61.8% | Active | Dose-dependent effect | 1.2% | 4.01 | 5.71
2 | COc1ccc(-c2nc3ccc(/C=C4\C(=O)Nc5ccc(Cl)cc54)cc3[nH]2)cc1 | 35.4% | 80.7% | 21.9% | 27% | Active | 1.6% | 33.8% | 40.7% | 3.77 | Active | Dose-dependent effect | 36.5% | 31.3% | 26.3% | 57.7% | Active | Dose-dependent effect | 1.1% | 3.96 | 5.74
